In patent US20120058236A1, “SWEETENER COMPOSITION COMPRISING HIGH SOLUBILITY FORM OF REBAUDIOSIDE A AND METHOD OF MAKING” (Cargill Incorporated, priority 2009, published 2012):

Assays:
[1] = Stability of aqueous solution of rebaudioside A crystal form; assay type: physicochemical; settings: solution from Form 1 crystals containing more than about 1 g/100 g water
Text: In some sweetening applications it is desirable to provide a sweetener composition of rebaudioside A that has a higher solubility in water than Form 2. […] Increased solubility in water allows more of the sweetener to be dissolved in a food product in order to provide the desired sweetness level. Increased solubility may be desirable in food products such as syrups and concentrates.

[2] = assay type: physicochemical
Experimental: (§1) 10 mg of sample was mixed with 0.5 mL deionized water and stirred by a magnetic stirrer at room temperature. As the solid was completely dissolved, more solid was added to the system with the increments of 10-40 mg until the solution became cloudy, which corresponded to the final concentration of 0.41 g/mL. The cloudy solution was filtered through a Millex-GV 0.22 um filter into a pre-weighted aluminum pan and the known mass of clear filtered solution was placed into an oven at 85° C. The solvent was completely evaporated and the residual solid was weighted to determine solubility.
as §1, with “16 mg of” for “10 mg of”, “mixed with 1 mL deionized” for “mixed with 0.5 mL deionized”, “water and was stirred by” for “water and stirred by”, “concentration of 0.4 g/mL. The” for “concentration of 0.41 g/mL. The”

| Compound | Stability in solution (conversion of dissolved form) [1] | Concentration left in solution after conversion to Form 2 ([1]; after hours to days) | Solubility at 22° C. (grams/100 grams water) [2] [grams/100 grams water] | Solubility in water at 24° C. (typical, stated in text) [2] |
| --- | --- | --- | --- | --- |
| C=C1C[C@@]23CC[C@H]4[C@@](C)(CCC[C@@]4(C)C(=O)O[C@@H]4O[C@H](CO)[C@@H](O)[C@H](O)[C@H]4O)[C@@H]2CC[C@]1(O[C@@H]1O[C@H](CO)[C@@H](O)[C@H](O[C@@H]2O[C@H](CO)[C@@H](O)[C@H](O)[C@H]2O)[C@H]1O[C@@H]1O[C@H](CO)[C@@H](O)[C@H](O)[C@H]1O)C3 [Form 1, rebaudioside A] | tends to convert to Form 2 within hours to days | about 1 g/100 g water |  |  |
| C=C1C[C@@]23CC[C@H]4[C@@](C)(CCC[C@@]4(C)C(=O)O[C@@H]4O[C@H](CO)[C@@H](O)[C@H](O)[C@H]4O)[C@@H]2CC[C@]1(O[C@@H]1O[C@H](CO)[C@@H](O)[C@H](O[C@@H]2O[C@H](CO)[C@@H](O)[C@H](O)[C@H]2O)[C@H]1O[C@@H]1O[C@H](CO)[C@@H](O)[C@H](O)[C@H]1O)C3 [Form 2, rebaudioside A] |  |  | 0.154 | ≤ 1 grams rebaudioside A/100 grams |
